The text below walks through data of PubChem BioAssay AID248 (DTP/NCI, 2004).

Molecules are shown by their SMILES. Several values for one entry are separate records, joined by “and”; a condition that tells them apart may be missing. Equal entries are not always repeated. Toxic doses and inconclusive results are not listed.

For this experiment, the system named is L1210 leukemia ip in BDF1 mice, survival T/C. Description: NCI In Vivo Anticancer Drug Screen. Data for tumor model L1210 Leukemia (intraperitoneal) in B6D2F1 (BDF1) mice. To be noted: endpoint: mean survival time, higher = longer survival. The method, boiled down: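 Each compound was tested against a transplantable tumor grown in mice. The endpoint was survival, with treated animals benchmarked against vehicle controls as a simple ratio.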

[1] abbreviates: dose: 100.0 mg/kg/injection, schedule: Q01DX001 (ip), vehicle: other.
The mark [2] stands for this setting: dose: 200.0 mg/kg/injection, schedule: Q01DX001 (ip), vehicle: other.
Where [3] appears, read: dose: 400.0 mg/kg/injection, schedule: Q01DX001 (ip), vehicle: other.
The mark [4] stands for this setting: dose: 100.0 mg/kg/injection, schedule: Q01DX001 (ip), vehicle: saline.
[5] abbreviates: dose: 200.0 mg/kg/injection, schedule: Q01DX001 (ip), vehicle: saline.
[6] abbreviates: dose: 400.0 mg/kg/injection, schedule: Q01DX001 (ip), vehicle: saline.
The mark [7] stands for this setting: dose: 50.0 mg/kg/injection, schedule: Q01DX001 (ip), vehicle: saline.

For `CCC(=O)c1ccc(N=Nc2c(N)nc(N)[nH]c2=O)cc1`, the T/C was 101 % of control (dose: 100.0 mg/kg/injection, schedule: Q01DX001 (ip), vehicle: carboxymethylcellulose (CMC)); 108 % of control (dose: 200.0 mg/kg/injection, schedule: Q01DX001 (ip), vehicle: carboxymethylcellulose (CMC)); 103 % of control (dose: 400.0 mg/kg/injection, schedule: Q01DX001 (ip), vehicle: carboxymethylcellulose (CMC)).

With `CC(C)C1(C(C)C)NC(=O)NC1=O`, the T/C runs as follows: under setting [1], 98 % of control; (dose: 100.0 mg/kg/injection, schedule: Q01DX009 (ip), vehicle: other) 101 % of control; (dose: 100.0 mg/kg/injection, schedule: Q04DX003 (ip), vehicle: other) 102 % of control; under setting [2], 98 % of control; (dose: 200.0 mg/kg/injection, schedule: Q01DX009 (ip), vehicle: other) 106 % of control; (dose: 200.0 mg/kg/injection, schedule: Q04DX003 (ip), vehicle: other) 98 % of control. The T/C runs as follows: under setting [3], 106 % of control; (dose: 400.0 mg/kg/injection, schedule: Q01DX009 (ip), vehicle: other) 107 % of control; (dose: 400.0 mg/kg/injection, schedule: Q04DX003 (ip), vehicle: other) 100 % of control.

Take `O=C(O)c1c(Cl)cccc1[N+](=O)[O-]`: the T/C is, setting by setting: under setting [4], 100 % of control; under setting [5], 96 % of control; under setting [6], 102 % of control.

With `CCOC(=O)C(C#N)c1ccccc1` (configuration not stated), the T/C is, setting by setting: under setting [7], 96 % of control; under setting [4], 100 % of control; under setting [5], 100 % of control.

With `Nc1nc(Br)cs1`, the T/C is, setting by setting: (dose: 100.0 mg/kg/injection, schedule: Q04DX003 (ip), vehicle: saline) 102 % of control; (dose: 200.0 mg/kg/injection, schedule: Q04DX003 (ip), vehicle: saline) 102 % of control.

In the case of `CCOC(CN)C(Cl)(Cl)Cl` (configuration not stated), the T/C was 98 % of control (dose: 50.0 mg/kg/injection, schedule: Q01DX009 (ip), vehicle: saline); 98 % of control and 104 % of control (dose: 100.0 mg/kg/injection, schedule: Q01DX009 (ip), vehicle: saline); 101 % of control and 116 % of control (dose: 200.0 mg/kg/injection, schedule: Q01DX009 (ip), vehicle: saline).

As to `Nc1ncnc2c1ncn2C1SC(CO)C(O)C1O` (configuration not stated), the T/C reads like this: under setting [7], 93 % of control and 103 % of control; under setting [4], 102 % of control and 105 % of control; (dose: 100.0 mg/kg/injection, schedule: Q01DX005 (ip), vehicle: saline) 108 % of control and 95 % of control; under setting [5], 104 % of control and 100 % of control; (dose: 200.0 mg/kg/injection, schedule: Q01DX005 (ip), vehicle: saline) 109 % of control and 95 % of control.

As for `O=C(Nc1ccc(C2=NCCN2)cc1)c1ccc(C(=O)Nc2ccc(C3=NCCN3)cc2)o1`, the T/C (dose: 15.0 mg/kg/injection, schedule: Q01DX Z (ip), vehicle: carboxymethylcellulose (CMC)) was 113 % of control; the T/C (dose: 30.0 mg/kg/injection, schedule: Q01DX Z (ip), vehicle: carboxymethylcellulose (CMC)) is 120 % of control; the T/C (dose: 120.0 mg/kg/injection, schedule: Q01DX Z (ip), vehicle: carboxymethylcellulose (CMC)) was 248 % of control; the T/C (dose: 240.0 mg/kg/injection, schedule: Q01DX Z (ip), vehicle: saline) was 252 % of control; the T/C (dose: 480.0 mg/kg/injection, schedule: Q01DX Z (ip), vehicle: saline) was 111 % of control.

Consider `Cc1cc(C(=O)O)c(CN2C(=O)c3ccccc3C2=O)c(=O)n1C`, for which the T/C by setting is: (dose: 100.0 mg/kg/injection, schedule: Q01DX001 (ip), vehicle: saline with Tween-80) 105 % of control; (dose: 100.0 mg/kg/injection, schedule: Q04DX003 (ip), vehicle: water) 102 % of control; (dose: 200.0 mg/kg/injection, schedule: Q01DX001 (ip), vehicle: saline with Tween-80) 100 % of control; (dose: 200.0 mg/kg/injection, schedule: Q04DX003 (ip), vehicle: water) 100 % of control; (dose: 400.0 mg/kg/injection, schedule: Q01DX001 (ip), vehicle: saline with Tween-80) 100 % of control; (dose: 400.0 mg/kg/injection, schedule: Q04DX003 (ip), vehicle: water) 104 % of control.

For `O=[N+]([O-])c1cc2c(nc3ccccn32)c2ccccc12`, the T/C runs as follows: under setting [7], 97 % of control; under setting [4], 96 % of control; under setting [5], 97 % of control.

As for `Ic1ncnc2c1ncn2C1CCCCO1` (configuration not stated), the T/C by setting is: (dose: 31.0 mg/kg/injection, schedule: Q01DX Z (ip), vehicle: other) 111 % of control; (dose: 62.0 mg/kg/injection, schedule: Q01DX Z (ip), vehicle: other) 109 % of control; under setting [4], 98 % of control; (dose: 100.0 mg/kg/injection, schedule: Q01DX009 (ip), vehicle: saline sonified) 96 % of control; (dose: 100.0 mg/kg/injection, schedule: Q04DX003 (ip), vehicle: Klucel (hydroxypropylcellulose) (HPC)) 93 % of control; (dose: 125.0 mg/kg/injection, schedule: Q01DX Z (ip), vehicle: other) 103 % of control. For the same molecule, the T/C under setting [5] is 107 % of control; the T/C (dose: 200.0 mg/kg/injection, schedule: Q01DX009 (ip), vehicle: saline sonified) was 93 % of control; the T/C (dose: 200.0 mg/kg/injection, schedule: Q04DX003 (ip), vehicle: Klucel (hydroxypropylcellulose) (HPC)) was 94 % of control; the T/C (dose: 250.0 mg/kg/injection, schedule: Q01DX Z (ip), vehicle: other) is 111 % of control; the T/C (dose: 375.0 mg/kg/injection, schedule: Q01DX Z (ip), vehicle: other) is 114 % of control; the T/C under setting [6] was 104 % of control. In addition, the T/C reads like this: (dose: 400.0 mg/kg/injection, schedule: Q04DX003 (ip), vehicle: Klucel (hydroxypropylcellulose) (HPC)) 98 % of control; (dose: 500.0 mg/kg/injection, schedule: Q01DX Z (ip), vehicle: other) 121 % of control.

Regarding `Cc1ccc(NC2=CC(=O)C(=O)c3ccccc32)cc1`, the T/C under setting [1] is 103 % of control, the T/C under setting [2] is 98 % of control and the T/C under setting [3] was 92 % of control.

For the molecule `Cc1ccc(CN=C=S)cc1`, the T/C is, setting by setting: (dose: 6.25 mg/kg/injection, schedule: Q01DX009 (ip), vehicle: saline with Tween-80) 103 % of control; (dose: 12.5 mg/kg/injection, schedule: Q01DX009 (ip), vehicle: saline with Tween-80) 98 % of control; (dose: 25.0 mg/kg/injection, schedule: Q01DX009 (ip), vehicle: saline with Tween-80) 97 % of control.

With `Oc1c(CN2CCOCC2)cc(N=Nc2ccccc2)c(O)c1CN1CCOCC1`, the T/C is 88 % of control under setting [4], 104 % of control under setting [5] and 88 % of control under setting [6].

For the molecule `COc1ccc(N2CCNCC2)cc1`, the T/C by setting is: (dose: 5.0 mg/kg/injection, schedule: Q01DX001 (ip), vehicle: saline) 103 % of control; (dose: 10.0 mg/kg/injection, schedule: Q01DX001 (ip), vehicle: saline) 103 % of control; (dose: 20.0 mg/kg/injection, schedule: Q01DX001 (ip), vehicle: saline) 97 % of control; (dose: 40.0 mg/kg/injection, schedule: Q01DX001 (ip), vehicle: saline) 105 % of control.

As for `Nc1nc(I)c2[nH]cnc2n1`, the T/C reads like this: (dose: 25.0 mg/kg/injection, schedule: Q01DX Z (ip), vehicle: methylcellulose (MC)) 95 % of control; (dose: 50.0 mg/kg/injection, schedule: Q01DX Z (ip), vehicle: methylcellulose (MC)) 103 % of control; (dose: 100.0 mg/kg/injection, schedule: Q01DX Z (ip), vehicle: methylcellulose (MC)) 108 % of control.
